Assay results: US20060189608A1, “Methods for treating ocular angiogenesis, retinal edema, retinal ischemia, and diabetic retinopathy using selective RTK inhibitors” (Alcon, Inc., priority 2005, published 2006)

Columns and labels:
[1] = test system: rat model of oxygen-induced retinopathy; experiment: Preretinal neovascularization, rat OIR model, intravitreal injection; assay type: in vivo, Sprague-Dawley rats; details: for % Inhibition (vs. vehicle-injected eye) / Median NV / NV Range: 5 μl intravitreal; for % Inhibition (vs. vehicle-injected eye): preretinal NV; for Median NV / NV Range: NV clockhour score
Text: METHODS: Pregnant Sprague-Dawley rats were received at 14 days gestation and subsequently gave birth on Day 22±1 of gestation. Immediately following parturition, pups were pooled and randomized into separate litters (n=17 pups/litter), placed into separate shoebox cages inside oxygen delivery chamber, and subjected to an oxygen-exposure profile from Day 0-14 postpartum. Litters were then placed into room air from Day 14/0 through Day 14/6 (days 14-20 postpartum). Additionally on Day 14/0, each pup was randomly assigned as an oxygen-exposed control or into various treatment groups. […] At Day 14/6 (20 days postpartum), all animals in both studies were euthanized.
Immediately following euthanasia, retinas from all rat pups were harvested, fixed in 10% neutral buffered formalin for 24 hours, subjected to ADPase staining, and fixed onto slides as whole mounts. Digital images were acquired from each retinal flat mount that was adequately prepared. Computerized image analysis was used to obtain a NV clockhour score from each readable sample. Each clockhour out of 12 total per retina was assessed for the presence or absence of preretinal NV. Statistical comparisons using median scores for NV clockhours from each treatment group were utilized in nonparametric analyses. Each noninjected pup represented one NV score by taking the average value of both eyes and was used in comparisons against each dosage group. Because the pups were randomly assigned and no difference was observed between oxygen-exposed control pups from all litters, the NV scores were combined for all treatment groups. P≦0.05 was considered statistically significant.

[2] = test system: VEGF-induced retinal vascular permeability; experiment: VEGF-induced retinal vascular permeability, intravitreal injection, rat; assay type: in vivo, Sprague-Dawley rats; details: 10 μl intravitreal
Method: METHODS: Adult Sprague-Dawley rats were anesthetized with intramuscular ketamine/xylazine and their pupils dilated with topical cycloplegics. […] Ten μl of each compound was intravitreally injected in each treatment eye (n=6 eyes per group). Three days following first intravitreal injection, all animals received an intravitreal injection of 10 μl 400 ng hr VEGF in both eyes. Twenty-four hours post-injection of VEGF, intravenous infusion of 3% Evans blue dye was performed in all animals, where 50 mg/kg of Evans blue dye was injected via the lateral tail vein during general anesthesia. After the dye had circulated for 90 minutes, the rats were euthanized. The rats were then systemically perfused with balanced salt solution, and then both eyes of each rat were immediately enucleated and the retinas harvested using a surgical microscope. After measurement of the retinal wet weight, the Evans blue dye was extracted by placing the retina in a 0.2 ml formamide (Sigma) and then the homogenized and ultracentrifuged. Blood samples were centrifuged and the plasma diluted 100 fold in formamide. For both retina and plasma samples, 60 μl of supernatant was used to measure the Evans blue dye absorbance (ABS) with at 620/740 nm. The blood-retinal barrier breakdown and subsequent retinal vascular permeability as measured by dye absorbance were calculated as means±s.e.m. of net ABS/wet weight/plasma ABS. A two-tailed Student's t-test was used for pair wise comparisons between OS and OD eyes in each group. One way ANOVA was used to determine an overall difference between treatment means, where P≦0.05 was considered significant.

[3] = test system: existing laser-induced choroidal neovascularization (CNV); experiment: Regression of existing laser-induced CNV, intravitreal injection, mouse; assay type: in vivo; details: for Mean CNV / Median CNV: intravitreal at day 7, day 14; for inhibition of CNV as compared to vehicle-injected eyes at day 14 post-laser: intravitreal at day 7; for reduction of median CNV area compared to CNV present at 7 days post-laser: intravitreal at day 7, read at day 14
Method: Methods. CNV was generated by laser-induced rupture of Bruch's membrane. Briefly, 4 to 5 week old male C57BL/6J mice were anesthetized using intraperitoneal administration of ketamine hydrochloride (100 mg/kg) and xylazine (5 mg/kg) and the pupils of both eyes dilated with topical ocular instillation of 1% tropicamide and 2.5% Mydfin®. One drop of topical cellulose (Gonioscopic®) was used to lubricate the cornea. A hand-held cover slip was applied to the cornea and used as a contact lens to aid visualization of the fundus. Three to four retinal burns were placed in randomly assigned eye (right or left eye for each mouse) using the Alcon 532 nm EyeLite laser with a slit 5 lamp delivery system. The laser burns were used to generate a rupture in Bruch's membrane, which was indicated ophthalmoscopically by the formation of a bubble under the retina. Only mice with laser burns that produced three bubbles per eye were included in the study. Bums were typically placed at the 3, 6, 9 or 12 o'clock positions in the posterior pole of the retina, avoiding the branch retinal arteries and veins.
Each mouse was randomly assigned into one of the following treatment groups: noninjected controls, sham-injected controls, vehicle-injected mice, or one of three RTKi-injected groups. Control mice received laser photocoagulation in both eyes, where one eye received a sham injection, i.e. a pars plana needle puncture. […] The intravitreal injection was performed immediately after laser photocoagulation. At 14 days post-laser, all mice were anesthetized and systemically perfused with fluorescein-labeled dextran. Eyes were then harvested and prepared as choroidal flat mounts with the RPE side oriented towards the observer. All choroidal flat mounts were examined using a fluorescent microscope. Digital images of the CNV were captured, where the CNV was identified as areas of hyperfluorescence within the pigmented background. Computerized image analysis was used to delineate and measure the two dimensional area of the hyperfluorescent CNV per lesion (um^2) for the outcome measurement. The median CNV area/burn per mouse per treatment group or the mean CNV area/burn per treatment group was used for statistical analysis depending on the normality of data distribution; P≦0.05 was considered significant.
METHODS: CNV was generated by laser-induced rupture of Bruch's membrane as described above in Example 3. Each mouse was randomly assigned to one of the following treatment groups: noninjected controls, sham-injected controls, vehicle-injected mice, AL-39324 injected groups. Control mice received laser photocoagulation in both eyes, where one eye received a sham injection, i.e. a pars plana needle puncture. […] All mice received laser photocagulation at day 0. For mice randomized to an injection group, a single intravitreal injection was performed at 7 days post-laser. Also at 7 days post-laser, several mice with no-injection were euthanized and their eyes used for controls. At 14 days post-laser, all remaining mice were euthanized and systemically perfused with fluorescein-labeled dextran. Eyes were then harvested and prepared as choroidal flat mounts with the RPE side oriented towards the observer. Choroidal flat mounts were analyzed as described above in Example 3.

[4] = Pilot intraocular safety study, single intravitreal injection, adult rat; assay type: in vivo; details: single intravitreal injection of 0.1 and 1.0%, up to 1 month postinjection
Text: Outcome measures were followed up to 1 month postinjection and involved clinical (fundus photography & indirect ophthalmoscopy), functional (electroretinography), and morphologic (histopathology) methods.

SMILES: Cc1ccc(F)c(NC(=O)Nc2ccc(-c3cccc4[nH]nc(N)c34)cc2)c1 [AL-39324, N-[4-[3-amino-1H-indazol-4-yl)phenyl]-N′-(2-fluoro-5-methylphenyl)urea]
- efficacy against preretinal NV ([1]; 0.1% treated eyes): Efficacy was not observed
- % Inhibition (vs. vehicle-injected eye) ([1]; 0.1%): 37%
- Median NV ([1]; 0.1%): 2.835
- NV Range ([1]; 0.1%): 1.1-5.3
- % Inhibition (vs. vehicle-injected eye) ([1]; 0.3%): 100%
- Median NV ([1]; 0.3%): 0
- NV Range ([1]; 0.3%): 0-5
- % Inhibition (vs. vehicle-injected eye) ([1]; 0.6%): 100%
- Median NV ([1]; 0.6%): 0
- NV Range ([1]; 0.6%): 0-1.1
- % Inhibition (vs. vehicle-injected eye) ([1]; 1%): 100%
- Median NV ([1]; 1%): 0
- NV Range ([1]; 1%): 0-2
- inhibition of preretinal NV ([1]; between 0.3%-1% suspensions, intravitreal): 100%
- decrease of retinal vascular permeability as compared to vehicle-injected eyes ([2]; 0.3%): 50%
- mean ABS±s.e.m. (net ABS/wet weight/plasma ABS, Evans blue) ([2]; 0.3%): 4.84±0.64
- decrease of retinal vascular permeability as compared to vehicle-injected eyes ([2]; 1.0%): 61%
- mean ABS±s.e.m. (net ABS/wet weight/plasma ABS, Evans blue) ([2]; 1.0%): 3.87±0.62
- decrease of retinal vascular permeability as compared to vehicle-injected eyes ([2]; 3%): 53%
- mean ABS±s.e.m. (net ABS/wet weight/plasma ABS, Evans blue) ([2]; 3.0%): 4.75±0.40
- Mean CNV ([3]; 1% (2 μl)): 31000 µm²
- Median CNV ([3]; 1% (2 μl)): 28300 µm²
- Mean CNV ([3]; 1% (5 μl)): 39200 µm²
- Median CNV ([3]; 1% (5 μl)): 36400 µm²
- inhibition of CNV as compared to vehicle-injected eyes at day 14 post-laser ([3]; 2 μl 1%): 55.9%
- reduction of median CNV area compared to CNV present at 7 days post-laser ([3]; 2 μl 1%): 45.4%
- Mean CNV ([3]; 3% (5 μl)): 35200 µm²
- Median CNV ([3]; 3% (5 μl)): 30600 µm²
- inhibition of CNV as compared to vehicle-injected eyes at day 14 post-laser ([3]; 3%): 52.3%
- inhibition of CNV as compared to vehicle-injected eyes at day 14 post-laser ([3]; 5 μl 1%): 43.7%
- reduction of median CNV area compared to CNV present at 7 days post-laser ([3]; 5 μl 1%): 29.7%
- reduction of median CNV area compared to CNV present at 7 days post-laser ([3]; 5 μl 3%): 41.0%
- adverse events (fundus, electroretinography, histopathology) [4]: No significant adverse events
